Experimental data: article PMC9432691, “Characterisation of a soil MINPP phytase with remarkable long-term stability and activity from Acinetobacter sp” (PLoS ONE, 2022)

Biological target: T1, AtITPK1 (inositol tris/tetrakisphosphate kinase 1) (Arabidopsis thaliana, UniProt Q9SBA5)
T1 construct: gene ITPK1
T1 sequence (Q9SBA5 2-319): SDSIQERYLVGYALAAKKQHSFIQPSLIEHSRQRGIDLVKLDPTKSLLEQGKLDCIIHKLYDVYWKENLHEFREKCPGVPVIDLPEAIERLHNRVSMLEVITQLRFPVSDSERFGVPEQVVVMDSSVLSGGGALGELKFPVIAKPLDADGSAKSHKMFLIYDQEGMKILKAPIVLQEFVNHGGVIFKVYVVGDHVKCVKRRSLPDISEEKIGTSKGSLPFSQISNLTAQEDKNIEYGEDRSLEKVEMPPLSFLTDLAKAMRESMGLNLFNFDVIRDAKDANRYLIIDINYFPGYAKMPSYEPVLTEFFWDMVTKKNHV
Assay: pyrophosphorylation assay with […] substrate, HPLC; […] conversion
Format: biochemical

SMILES: O=P(O)(O)O[C@H]1[C@H](OP(=O)(O)O)[C@@H](OP(=O)(O)O)[C@H](OP(=O)(O)O)[C@@H](OP(=O)(O)O)[C@H]1OP(=O)(O)O [InsP6, myo-inositol 1,2,3,4,5,6-hexakisphosphate]
- % conversion: 90 % conversion
